According to ChEMBL document CHEMBL1201862, “PubChem BioAssay data set” (2004):
Active and inactive are the calls of the source.

How the values were obtained:
[1] = C. albicans growth with fluconazole, confirmation, fluorescence, retest (AID 2467); assay type: functional, cell-based
[2] = biological target: ATP-dependent molecular chaperone HSP82 (Candida albicans (strain WO-1) (Yeast), UniProt C4YTQ8); assay: loss of DOC-induced GRE-beta-galactosidase reporter signal, dose response, Hsp90 inhibitor project, S. cerevisiae, luminescence (AID 2400); assay type: functional, cell-based;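 further: beta-galactosidase luminescence from glucocorticoid response element reporter as proxy for Hsp90 function; inhibitor potency where signal loss means Hsp90 inhibition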
Chain of ATP-dependent molecular chaperone HSP82 (C4YTQ8 whole entry): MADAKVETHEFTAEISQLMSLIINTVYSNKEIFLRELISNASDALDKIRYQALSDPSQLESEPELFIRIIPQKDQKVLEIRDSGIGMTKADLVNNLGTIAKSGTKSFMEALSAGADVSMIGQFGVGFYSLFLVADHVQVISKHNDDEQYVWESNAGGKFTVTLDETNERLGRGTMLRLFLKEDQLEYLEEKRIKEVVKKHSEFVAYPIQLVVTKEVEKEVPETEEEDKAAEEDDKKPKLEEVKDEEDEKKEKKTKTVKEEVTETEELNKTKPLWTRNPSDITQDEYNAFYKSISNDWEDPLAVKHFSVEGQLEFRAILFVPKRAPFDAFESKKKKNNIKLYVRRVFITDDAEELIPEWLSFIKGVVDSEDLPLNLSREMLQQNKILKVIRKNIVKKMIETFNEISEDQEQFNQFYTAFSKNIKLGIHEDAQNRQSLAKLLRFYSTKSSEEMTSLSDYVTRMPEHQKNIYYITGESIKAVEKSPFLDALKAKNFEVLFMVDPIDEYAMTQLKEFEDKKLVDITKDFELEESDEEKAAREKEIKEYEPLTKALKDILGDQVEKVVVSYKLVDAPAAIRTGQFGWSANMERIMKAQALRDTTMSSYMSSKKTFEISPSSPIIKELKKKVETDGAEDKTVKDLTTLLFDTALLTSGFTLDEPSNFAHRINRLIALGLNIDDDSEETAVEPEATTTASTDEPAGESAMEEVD

[3] = Vero E6 cell cytotoxicity, dose response, cytotoxicity control for non-replicating M. tuberculosis project, secondary assay (AID 492998); assay type: functional, VeroE6; conditions: Vero C1008
cells = assay type: functional
[4] = HepG2 cell cytotoxicity, dose response, cytotoxicity control for non-replicating M. tuberculosis project (AID 489018); assay type: functional; conditions: Mycobacterium tuberculosis
[5] = NIH-3T3 fibroblast cytotoxicity, dose response, cytotoxicity control, cell-based, fluorescence, Alamar Blue, secondary assay (AID 2327); assay type: functional;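 further: NIH-3T3 mouse fibroblasts cultured with fluconazole at 8 µg/mL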
[6] = THP-1 cell cytotoxicity, dose response, cytotoxicity control for non-replicating M. tuberculosis project (AID 489025); assay type: functional
[7] = biological target: NACHT, LRR and PYD domains-containing protein 3 (Homo sapiens, UniProt Q96P20); assay: NALP3 inhibitors in yeast, dose response, luminescent (AID 488799); assay type: functional
Chain of NACHT, LRR and PYD domains-containing protein 3 (Q96P20 whole entry, the tested form may be a part): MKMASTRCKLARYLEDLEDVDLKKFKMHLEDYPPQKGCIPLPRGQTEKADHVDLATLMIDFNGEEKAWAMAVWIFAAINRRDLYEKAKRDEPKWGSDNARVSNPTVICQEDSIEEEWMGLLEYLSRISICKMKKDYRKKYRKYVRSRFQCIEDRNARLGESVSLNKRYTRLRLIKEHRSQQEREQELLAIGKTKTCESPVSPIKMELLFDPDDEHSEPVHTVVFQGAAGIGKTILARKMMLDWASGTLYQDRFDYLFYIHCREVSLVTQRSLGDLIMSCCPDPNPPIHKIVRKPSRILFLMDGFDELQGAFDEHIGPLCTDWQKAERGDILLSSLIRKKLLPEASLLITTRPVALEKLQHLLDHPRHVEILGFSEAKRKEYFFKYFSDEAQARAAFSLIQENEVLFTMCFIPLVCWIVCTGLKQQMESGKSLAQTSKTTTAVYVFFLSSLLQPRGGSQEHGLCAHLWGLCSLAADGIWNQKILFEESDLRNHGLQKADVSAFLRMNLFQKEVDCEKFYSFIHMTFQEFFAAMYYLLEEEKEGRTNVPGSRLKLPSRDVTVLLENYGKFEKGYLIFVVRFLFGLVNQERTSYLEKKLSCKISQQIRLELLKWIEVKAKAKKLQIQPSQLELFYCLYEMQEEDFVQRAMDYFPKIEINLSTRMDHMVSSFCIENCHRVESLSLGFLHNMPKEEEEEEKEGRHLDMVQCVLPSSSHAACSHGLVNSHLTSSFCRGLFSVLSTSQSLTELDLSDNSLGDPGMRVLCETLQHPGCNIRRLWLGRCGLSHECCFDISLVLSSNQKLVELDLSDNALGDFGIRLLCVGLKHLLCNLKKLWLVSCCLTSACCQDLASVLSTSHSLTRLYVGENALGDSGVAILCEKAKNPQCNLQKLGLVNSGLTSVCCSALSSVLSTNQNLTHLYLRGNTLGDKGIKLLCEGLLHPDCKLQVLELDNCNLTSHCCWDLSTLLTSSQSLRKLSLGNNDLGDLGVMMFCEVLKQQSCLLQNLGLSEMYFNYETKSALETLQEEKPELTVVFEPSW

[8] = biological target: T1, Serine/threonine-protein phosphatase (Candida dubliniensis (strain CD36 / CBS 7987 / NCPF 3949 / NRRLY-17841) (Yeast), UniProt B9W6M3); assay: calcineurin pathway inhibitors in yeast reporter, dose response, S. cerevisiae, CDRE-lacZ, luminescence, secondary (AID 2388); assay type: functional, cell-based;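 further: yeast reporter cells carrying a calcineurin-responsive lacZ construct stimulated with calcium chloride; luminescent beta-galactosidase reporter signal in whole cells rather than isolated phosphatase activity; potency for inhibition where a drop in reporter signal means calcineurin blockade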
T1 sequence (B9W6M3 whole entry): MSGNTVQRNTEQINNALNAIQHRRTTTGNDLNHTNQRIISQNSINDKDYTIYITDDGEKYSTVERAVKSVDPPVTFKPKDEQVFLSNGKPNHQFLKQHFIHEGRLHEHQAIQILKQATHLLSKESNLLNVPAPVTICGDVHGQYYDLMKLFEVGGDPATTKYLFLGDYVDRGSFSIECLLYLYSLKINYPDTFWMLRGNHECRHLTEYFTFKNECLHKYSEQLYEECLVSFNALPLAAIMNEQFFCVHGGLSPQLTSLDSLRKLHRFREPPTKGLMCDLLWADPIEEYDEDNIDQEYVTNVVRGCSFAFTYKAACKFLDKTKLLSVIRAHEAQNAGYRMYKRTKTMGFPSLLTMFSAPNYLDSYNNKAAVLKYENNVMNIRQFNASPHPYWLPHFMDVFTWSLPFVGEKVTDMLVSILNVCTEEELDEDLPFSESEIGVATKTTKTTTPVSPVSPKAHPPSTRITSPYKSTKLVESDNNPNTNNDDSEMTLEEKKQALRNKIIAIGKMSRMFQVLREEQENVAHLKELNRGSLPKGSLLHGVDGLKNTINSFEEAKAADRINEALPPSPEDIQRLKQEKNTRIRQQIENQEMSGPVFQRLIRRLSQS

BJ [9] = assay: cells; assay type: functional, cell-based; conditions: Homo sapiens
[10] = cytotoxicity toward DRD oncogenic fibroblasts, dose response, cell-based, non-viral oncogenic, luminescence (AID 1934); assay type: functional; conditions: Homo sapiens
BJ [11] = assay: cytotoxicity toward BJ-TERT fibroblasts, dose response, cell-based, RAS-independent, luminescence (AID 1933); assay type: functional; conditions: Homo sapiens
BJ [12] = assay: cytotoxicity toward BJ-TERT-LT-ST fibroblasts, dose response, cell-based, RAS-independent, luminescence (AID 1935); assay type: functional; conditions: Homo sapiens;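 further: BJ fibroblasts immortalized with TERT plus LT and ST oncogenes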
[13] = cytotoxicity in HEK-293T cells, dose response, cytotoxicity control for TCR NF-kB inhibitor project, luminescence, T-cell screen hits (AID 489026); assay type: functional, cell-based;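 further: cells exposed to compound about 14 hours before the viability readout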
J774.A1 = assay: Confirmation of image-based Screening Assay for Inhibitors of Phagocytosis. [Related pubchem assays (depositor defined):AID1029, AID1643]; assay type: functional, cell-based; conditions: Mus musculus
[14] = biological target: T2, Polyadenylate-binding protein 1 (Homo sapiens, UniProt P11940); assay: PABP1 MLLE–PAM2 interaction inhibitors, dose response, miRNA deadenylation inhibitor project, biochemical, fluorescence polarization, Cy5-PAM2 peptide, secondary (AID 602260); assay type: functional; conditions: read-out: IC50_Mean
T2 sequence (P11940 whole entry): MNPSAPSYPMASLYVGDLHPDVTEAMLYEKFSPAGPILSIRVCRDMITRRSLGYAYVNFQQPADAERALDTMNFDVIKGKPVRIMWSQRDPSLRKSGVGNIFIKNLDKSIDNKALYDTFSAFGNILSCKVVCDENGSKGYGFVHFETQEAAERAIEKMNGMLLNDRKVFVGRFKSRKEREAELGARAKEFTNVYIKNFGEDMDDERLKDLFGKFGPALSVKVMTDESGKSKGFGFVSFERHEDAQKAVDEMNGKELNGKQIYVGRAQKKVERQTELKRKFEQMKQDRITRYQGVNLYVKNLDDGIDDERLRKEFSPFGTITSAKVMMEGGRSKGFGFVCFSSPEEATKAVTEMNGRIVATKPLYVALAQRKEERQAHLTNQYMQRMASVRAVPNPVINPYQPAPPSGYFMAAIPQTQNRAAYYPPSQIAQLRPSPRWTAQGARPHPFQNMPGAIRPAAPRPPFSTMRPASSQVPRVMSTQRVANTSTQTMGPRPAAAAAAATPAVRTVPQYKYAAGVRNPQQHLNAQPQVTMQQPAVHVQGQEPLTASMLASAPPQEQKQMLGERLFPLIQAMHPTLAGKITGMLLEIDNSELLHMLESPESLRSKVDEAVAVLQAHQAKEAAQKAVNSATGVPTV

[15] = biological target: Potassium voltage-gated channel subfamily KQT member 2 (Rattus norvegicus, UniProt O88943); assay: retigabine-insensitive KCNQ2 potentiators, concentration-response, dose response, cell-based, retigabine-insensitive compounds (AID 2654); assay type: functional
Chain of Potassium voltage-gated channel subfamily KQT member 2 (O88943 whole entry): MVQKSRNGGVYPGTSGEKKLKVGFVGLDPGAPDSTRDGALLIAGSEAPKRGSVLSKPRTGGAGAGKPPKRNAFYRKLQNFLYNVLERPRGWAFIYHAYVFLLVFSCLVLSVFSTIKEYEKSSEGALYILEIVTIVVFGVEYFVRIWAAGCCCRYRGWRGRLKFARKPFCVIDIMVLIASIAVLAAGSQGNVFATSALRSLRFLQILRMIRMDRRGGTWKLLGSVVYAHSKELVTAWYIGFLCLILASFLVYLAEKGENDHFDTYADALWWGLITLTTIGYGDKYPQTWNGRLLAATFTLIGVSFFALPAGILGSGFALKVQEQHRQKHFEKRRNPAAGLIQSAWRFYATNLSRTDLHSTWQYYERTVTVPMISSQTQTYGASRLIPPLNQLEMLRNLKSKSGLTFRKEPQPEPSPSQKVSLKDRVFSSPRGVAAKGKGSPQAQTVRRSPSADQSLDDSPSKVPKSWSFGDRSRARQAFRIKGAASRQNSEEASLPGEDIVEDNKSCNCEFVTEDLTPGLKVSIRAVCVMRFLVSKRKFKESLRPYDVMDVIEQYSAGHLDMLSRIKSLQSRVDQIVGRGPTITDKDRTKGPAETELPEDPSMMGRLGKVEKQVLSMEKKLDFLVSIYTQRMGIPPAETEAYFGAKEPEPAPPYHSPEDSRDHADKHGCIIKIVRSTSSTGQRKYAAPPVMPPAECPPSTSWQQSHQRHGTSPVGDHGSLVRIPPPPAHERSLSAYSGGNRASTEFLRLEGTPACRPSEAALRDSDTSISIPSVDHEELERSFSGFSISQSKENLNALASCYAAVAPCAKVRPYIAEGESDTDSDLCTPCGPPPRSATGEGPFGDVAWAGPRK

[16] = biological target: T2, Polyadenylate-binding protein 1; assay: PABP1 MLLE–PAM2 binding inhibitor potency, dose response, biochemical, fluorescence polarization, FITC-PAM2 peptide (AID 602259); assay type: functional; conditions: read-out: IC50_Mean
[17] = biological target: T3, Dual specificity protein phosphatase 3 (Homo sapiens, UniProt P51452); assay: MOA VHR1 Fluorescent secondary assay for identification of redox-state modulating compounds. [Related pubchem assays (depositor defined):AID1654, AID1661, AID1878, AID1957]
T3 sequence (P51452 whole entry): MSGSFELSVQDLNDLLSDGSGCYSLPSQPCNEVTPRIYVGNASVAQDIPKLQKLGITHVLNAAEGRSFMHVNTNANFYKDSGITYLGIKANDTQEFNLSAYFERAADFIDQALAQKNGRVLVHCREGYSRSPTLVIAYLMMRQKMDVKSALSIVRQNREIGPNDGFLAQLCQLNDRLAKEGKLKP

[18] = biological target: T4, Tyrosine-protein phosphatase non-receptor type 7 (Homo sapiens, UniProt P35236); assay: redox-dependent HePTP inhibition, mechanism study, biochemical, fluorescence (AID 2068); assay type: functional
T4 sequence (P35236 whole entry): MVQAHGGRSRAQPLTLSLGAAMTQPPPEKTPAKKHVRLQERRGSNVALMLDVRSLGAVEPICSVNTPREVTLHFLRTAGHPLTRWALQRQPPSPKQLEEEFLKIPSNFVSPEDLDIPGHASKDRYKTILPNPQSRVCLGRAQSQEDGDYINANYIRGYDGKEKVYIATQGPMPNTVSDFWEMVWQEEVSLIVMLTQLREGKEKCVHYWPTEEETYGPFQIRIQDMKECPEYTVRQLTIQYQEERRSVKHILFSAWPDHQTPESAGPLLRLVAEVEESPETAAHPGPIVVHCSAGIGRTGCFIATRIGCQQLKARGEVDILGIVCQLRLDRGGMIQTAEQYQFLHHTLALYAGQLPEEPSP

[19] = biological target: T4, Tyrosine-protein phosphatase non-receptor type 7; assay type: functional
[20] = biological target: T5, Dual specificity protein phosphatase 6 (Rattus norvegicus, UniProt Q64346)
T5 sequence (Q64346 whole entry): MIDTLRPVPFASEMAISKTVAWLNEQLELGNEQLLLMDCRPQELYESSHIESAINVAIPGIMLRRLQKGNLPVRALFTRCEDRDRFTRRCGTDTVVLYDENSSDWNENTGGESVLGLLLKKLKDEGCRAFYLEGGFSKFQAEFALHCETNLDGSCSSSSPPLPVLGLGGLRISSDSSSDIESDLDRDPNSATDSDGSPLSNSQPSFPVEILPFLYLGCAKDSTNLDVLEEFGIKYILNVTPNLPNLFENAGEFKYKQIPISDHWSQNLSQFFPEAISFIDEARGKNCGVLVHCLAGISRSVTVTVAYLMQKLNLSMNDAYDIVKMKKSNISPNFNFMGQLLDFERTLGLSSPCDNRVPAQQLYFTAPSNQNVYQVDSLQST

[21] = biological target: Glyceraldehyde-3-phosphate dehydrogenase (Homo sapiens, UniProt P04406)
Chain of Glyceraldehyde-3-phosphate dehydrogenase (P04406 whole entry): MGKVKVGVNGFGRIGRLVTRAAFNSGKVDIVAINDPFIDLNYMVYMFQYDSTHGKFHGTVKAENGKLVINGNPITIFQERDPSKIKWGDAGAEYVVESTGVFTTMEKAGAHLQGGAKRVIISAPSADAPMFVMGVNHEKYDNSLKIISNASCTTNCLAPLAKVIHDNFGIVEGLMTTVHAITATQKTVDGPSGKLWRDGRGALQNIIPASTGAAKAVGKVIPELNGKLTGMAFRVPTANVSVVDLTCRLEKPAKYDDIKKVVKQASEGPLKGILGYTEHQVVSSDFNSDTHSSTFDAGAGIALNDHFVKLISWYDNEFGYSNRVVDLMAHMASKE

[22] = biological target: T3, Dual specificity protein phosphatase 3; assay: SAR VHR1 Fluorescent Assay for In Vitro dose response studies. [Related pubchem assays (depositor defined):AID1654, AID1661, AID1878, AID1992, AID2004, AID2070, AID2085]; assay type: functional
[23] = biological target: T5, Dual specificity protein phosphatase 6; assay type: functional

O=c1c2cc(Br)ccc2nc(-c2ccc([N+](=O)[O-])cc2)n1O
EC50 [1]: 0.585 µM (active)
EC50 [2]: 2.56 µM (active)
CC50 [3]: 18.4 µM (active)
IC50 (cells): 11.9 µM (active)
CC50 [4]: 19.9 µM (active)
EC50 [5]: > 150 µM (inactive)
CC50 [6]: 20.3 µM (active)
IC50 [7]: 4.91 µM (active)
EC50 [8]: 3.07 µM (active)

CCOc1ccccc1C1CC(=O)Nc2cc3c(cc21)OCCO3 (stereo not given)
EC50 (BJ [9]): 22.3 µM (active)
EC50 [10]: 0.829 µM (active)
EC50 (BJ [11]): 1.23 µM (active)
EC50 (BJ [12]): 0.814 µM (inconclusive)
IC50 [13]: > 80 µM (inactive)
IC50 (J774.A1): > 25 µM (inactive)

Fc1cccc(NC(=S)Nc2cccnc2)c1
IC50 [14]: > 66 µM (inactive)
EC50 [15]: 41.9 µM (active)
IC50 [16]: > 66 µM (inactive)

O=c1/c(=C/c2cccc(Br)c2)sc2nc3cc(Br)cnc3n12
IC50 [17]: > 100 µM (inactive)
IC50 [18]: 98.3 µM (active)
IC50 [19]: > 100 µM (not active)
IC50 [20]: > 100 µM (inactive)
IC50 [21]: > 100 µM (not active)
IC50 [22]: > 100 µM (inactive)
IC50 [23]: > 100 µM (inactive)
